Measured values reported in US20060089499A1, “Pyrazolopyrimidines and the use thereof for controlling harmful organisms” (priority 2002, published 2006).

Key:
Venturia inaequalis = assay: Venturia test (apple)/protective; type: in vivo; conditions: topical, 240 h, protective, application rate 100 g/ha, evaluation 10 days after inoculation, read-out: Efficacy in %
Description: Venturia Test (Apple)/Protective [table] To produce a suitable preparation of active compound, 1 part by weight of active compound is mixed with the stated amounts of solvent and emulsifier, and the concentrate is diluted with water to the desired concentration. To test for protective activity, young plants are sprayed with the preparation of active compound at the stated application rate. After the spray coating has dried on, the plants are inoculated with an aqueous conidia suspension of the apple scab pathogen Venturia inaequalis and then remain in an incubation cabin at about 20° C. and 100% relative atmospheric humidity for 1 day. The plants are then placed in a greenhouse at about 21° C. and a relative atmospheric humidity of about 90%.

Botrytis cinerea = assay: Botrytis test (bean)/protective; type: in vivo; conditions: topical, 48 h, protective, application rate 500 g/ha, evaluation 2 days after inoculation, read-out: Efficacy in %
Description: Botrytis Test (Bean)/Protective
To produce a suitable preparation of active compound, 1 part by weight of active compound is mixed with the stated amounts of solvent and emulsifier, and the concentrate is diluted with water to the desired concentration. To test for protective activity, young plants are sprayed with the preparation of active compound at the stated application rate. After the spray coating has dried on, 2 small pieces of agar colonized by Botrytis cinerea are placed onto each leaf. The inoculated plants are placed in a dark chamber at about 20° C. and 100% relative atmospheric humidity.
2 days after the inoculation, the size of the infected areas on the leaves is evaluated. 0% means an efficacy which corresponds to that of the control, whereas an efficacy of 100% means that no infection is observed.

Structure (SMILES)	chromatographic logP (physchem; logP)	pest or weed control at 500 g/ha (Botrytis cinerea) [%]	further results
C[C@H](Nc1c(-c2ccc(F)cc2Cl)c(Cl)nc2c(C#N)cnn12)C(F)(F)F (single isomer, unassigned) [Example 1]			chromatographic logP (physchem; log P): 3.88
C[C@H](Nc1c(-c2c(F)cc(F)cc2F)c(Cl)nc2c(Cl)cnn12)C(F)(F)F [Example 3, N-[3,5-dichloro-6-(2,4,6-trifluorophenyl)pyrazolo[1,5-a]pyrimidin-7-yl]-N-[(1S)-2,2,2-trifluoro-1-methylethyl]amine]			chromatographic logP (physchem; log P): 4.43
CC(C)C(C)Nc1c(-c2c(F)cccc2Cl)cnc2c(C#N)cnn12 (stereo not drawn) [Example 4, 6-(2-chloro-6-fluorophenyl)-7-[(1,2-dimethylpropyl)amino)pyrazolo[1,5-a]pyrimidine-3-carbonitrile]			chromatographic logP (physchem; log P): 3.78
CC(C)C(C)Nc1c(-c2ccc(F)cc2Cl)cnc2c(Cl)cnn12 (stereo not drawn) [Example 5, N-[3-chloro-6-(2-chloro-4-fluorophenyl)pyrazolo[1,5-a]pyrimidin-7-yl]-N-(1,2-dimethylpropyl)amine]			chromatographic logP (physchem; log P): 4.53
CC(Nc1c(-c2ccc(F)cc2Cl)c(Cl)nc2c(C=O)cnn12)C(C)(C)C (stereo not drawn) [Example 401, 3-formyl-5-chloro-6-(2-chloro-4-fluorophenyl)-7-(1,2,2-trimethylpropylamino)pyrazolo[1,5a]pyrimidine]	4.43		chromatographic logP (physchem; log P): 4.43
CO/N=C\c1cnn2c(NC(C)C(C)(C)C)c(-c3ccc(F)cc3Cl)c(Cl)nc12 (stereo not drawn) [Example 402, 3-methoximino-5-chloro-6-(2-chloro-4-fluorophenyl)-7-(1,2,2-trimethylpropylamino)pyrazolo[1,5a]pyrimidine]	5.48		chromatographic logP (physchem; log P): 5.48
N#Cc1cnn2c(Cl)c(-c3ccc(F)cc3Cl)c(Cl)nc12 [Example 441, 3-cyano-5,7-dichloro-6-(2-chloro-4-fluorophenyl)pyrazolo[1,5-a]pyrimidine]			chromatographic logP (physchem; log P): 3.48
Fc1cc(F)c(-c2c(Cl)nc3c(Cl)cnn3c2Cl)c(F)c1 [Example 442, 3,5,7-trichloro-6-(2,4,6-trifluorophenyl)pyrazolo[1,5-a]pyrimidine]			chromatographic logP (physchem; log P): 3.97
Fc1ccc(-c2cnc3c(Cl)cnn3c2Cl)c(Cl)c1 [Example 443, 3,7-dichloro-6-(2-chloro-4-fluorophenyl)pyrazolo[1,5-a]pyrimidine]			chromatographic logP (physchem; log P): 3.56
C=C(C)CN(CC)c1c(-c2c(F)cc(F)cc2F)c(Cl)nc2c(C#N)cnn12 [compound 6]	4.6		
C[C@H](Nc1c(-c2c(F)cc(F)cc2F)c(Cl)nc2c(C#N)cnn12)C(F)(F)F [compound 7]	3.69		
C[C@H](Nc1c(-c2c(F)cccc2Cl)c(Cl)nc2c(C#N)cnn12)C(F)(F)F [compound 12]	3.73		
C=C(C)CN(CC)c1c(-c2c(F)cccc2Cl)c(Cl)nc2c(C#N)cnn12 [compound 13]	4.68		
N#Cc1cnn2c(N3CCOCC3)c(-c3c(F)cccc3Cl)c(Cl)nc12 [compound 14]	3.26		
N#Cc1cnn2c(N3CCCCC3)c(-c3c(F)cccc3Cl)c(Cl)nc12 [compound 21]	4.32		
CC1CCN(c2c(-c3c(F)cccc3Cl)c(Cl)nc3c(C#N)cnn23)CC1 [compound 28]	4.77		
N#Cc1cnn2c(NCC3CC3)c(-c3c(F)cccc3Cl)c(Cl)nc12 [compound 29]	3.74		
N#Cc1cnn2c(N3CCC(F)CC3)c(-c3c(F)cccc3Cl)c(Cl)nc12 [compound 34]	3.82		
CC(C)CN(C)c1c(-c2c(F)cccc2Cl)c(Cl)nc2c(C#N)cnn12 [compound 46]	4.51		
CCC(C)Nc1c(-c2c(F)cc(F)cc2F)c(Cl)nc2c(C#N)cnn12 (stereo not drawn) [compound 50]	3.89		
CC(C)Nc1c(-c2c(F)cc(F)cc2F)c(Cl)nc2c(C#N)cnn12 [compound 52]	3.54		

Structure (SMILES)	chromatographic logP (physchem; logP)	pest or weed control at 500 g/ha (Botrytis cinerea) [%]	further results
N#Cc1cnn2c(NCC3CC3)c(-c3c(F)cc(F)cc3F)c(Cl)nc12 [compound 54]	3.63		
C[C@H](Nc1c(-c2ccccc2F)c(Cl)nc2c(C#N)cnn12)C(F)(F)F [compound 74]	3.49		
CC1CCN(c2c(-c3ccccc3Cl)c(Cl)nc3c(C#N)cnn23)CC1 [compound 95]	4.78		
CC(C)CN(C)c1c(-c2c(F)cc(F)cc2F)c(Cl)nc2c(C#N)cnn12 [compound 108]	4.37		
C=C(C)CN(C)c1c(-c2c(F)cc(F)cc2F)c(Cl)nc2c(C#N)cnn12 [compound 110]	4.24		
CC(C)CN(C)c1c(-c2ccccc2Cl)c(Cl)nc2c(C#N)cnn12 [compound 138]	4.51		
CC(C)CNc1c(-c2ccc(F)cc2F)c(Cl)nc2c(C#N)cnn12 [compound 148]	3.87		
N#Cc1cnn2c(N3CCC(F)(F)CC3)c(-c3c(F)cc(F)cc3F)c(Cl)nc12 [compound 230]	3.81		
Fc1cc(F)c(-c2c(Cl)nc3c(Cl)cnn3c2N2CCC(F)(F)CC2)c(F)c1 [compound 231]	4.61		
CC1CCN(c2c(-c3c(F)cccc3Cl)c(Cl)nc3c(C#N)cnn23)CC1 [drawing 92]			pest or weed control at 100 g/ha (Venturia inaequalis): 97%
N#Cc1cnn2c(NCC3CC3)c(-c3c(F)cccc3Cl)c(Cl)nc12 [drawing 93]			pest or weed control at 100 g/ha (Venturia inaequalis): 100%
C=C(C)CN(CC)c1c(-c2c(F)cc(F)cc2F)c(Cl)nc2c(C#N)cnn12 [drawing 94]			pest or weed control at 100 g/ha (Venturia inaequalis): 100%
C[C@H](Nc1c(-c2c(F)cc(F)cc2F)c(Cl)nc2c(C#N)cnn12)C(F)(F)F [drawing 95]			pest or weed control at 100 g/ha (Venturia inaequalis): 100%
C[C@H](Nc1c(-c2c(F)cc(F)cc2F)c(Cl)nc2c(Cl)cnn12)C(F)(F)F [drawing 96]			pest or weed control at 100 g/ha (Venturia inaequalis): 98%
Fc1cc(F)c(-c2c(Cl)nc3c(Cl)cnn3c2N2CCC(F)(F)CC2)c(F)c1 [drawing 97]			pest or weed control at 100 g/ha (Venturia inaequalis): 100%
CC(C)[C@@H](C)Nc1c(-c2c(F)cc(F)cc2F)c(Cl)nc2c(C#N)cnn12 [drawing 98]			pest or weed control at 100 g/ha (Venturia inaequalis): 100%
CCC(C)Nc1c(-c2c(F)cc(F)cc2F)c(Cl)nc2c(C#N)cnn12 (stereo not drawn) [drawing 99]			pest or weed control at 100 g/ha (Venturia inaequalis): 100%
CC(C)Nc1c(-c2c(F)cc(F)cc2F)c(Cl)nc2c(C#N)cnn12 [drawing 100]			pest or weed control at 100 g/ha (Venturia inaequalis): 98%
CC(C)CN(C)c1c(-c2c(F)cc(F)cc2F)c(Cl)nc2c(C#N)cnn12 [drawing 101]			pest or weed control at 100 g/ha (Venturia inaequalis): 100%
C=C(C)CN(C)c1c(-c2c(F)cc(F)cc2F)c(Cl)nc2c(C#N)cnn12 [drawing 102]			pest or weed control at 100 g/ha (Venturia inaequalis): 100%
N#Cc1cnn2c(N3CCCCC3)c(-c3c(F)cccc3Cl)c(Cl)nc12 [drawing 111]		93	

Structure (SMILES)	chromatographic logP (physchem; logP)	pest or weed control at 500 g/ha (Botrytis cinerea) [%]	further results
CC1CCN(c2c(-c3c(F)cccc3Cl)c(Cl)nc3c(C#N)cnn23)CC1 [drawing 112]		96	
N#Cc1cnn2c(NCC3CC3)c(-c3c(F)cccc3Cl)c(Cl)nc12 [drawing 113]		99	
C=C(C)CN(CC)c1c(-c2c(F)cc(F)cc2F)c(Cl)nc2c(C#N)cnn12 [drawing 114]		100	
C[C@H](Nc1c(-c2c(F)cc(F)cc2F)c(Cl)nc2c(C#N)cnn12)C(F)(F)F [drawing 115]		99	
C[C@H](Nc1c(-c2c(F)cc(F)cc2F)c(Cl)nc2c(Cl)cnn12)C(F)(F)F [drawing 116]		100	
Fc1cc(F)c(-c2c(Cl)nc3c(Cl)cnn3c2N2CCC(F)(F)CC2)c(F)c1 [drawing 117]		95	
CC(C)[C@@H](C)Nc1c(-c2c(F)cc(F)cc2F)c(Cl)nc2c(C#N)cnn12 [drawing 118]		96	
CCC(C)Nc1c(-c2c(F)cc(F)cc2F)c(Cl)nc2c(C#N)cnn12 (stereo not drawn) [drawing 119]		97	
CC(C)Nc1c(-c2c(F)cc(F)cc2F)c(Cl)nc2c(C#N)cnn12 [drawing 120]		93	
CC(C)CN(C)c1c(-c2c(F)cc(F)cc2F)c(Cl)nc2c(C#N)cnn12 [drawing 121]		100	
C=C(C)CN(C)c1c(-c2c(F)cc(F)cc2F)c(Cl)nc2c(C#N)cnn12 [drawing 122]		100	
CC(Nc1c(-c2ccc(F)cc2Cl)c(Cl)nc2c(C#N)cnn12)C(F)(F)F (stereo not drawn) [drawing 123]		99	
C[C@H](Nc1c(-c2ccc(F)cc2Cl)c(Cl)nc2c(C#N)cnn12)C(F)(F)F [drawing 124]		100	
CC(C)CN(C)c1c(-c2ccccc2Cl)c(Cl)nc2c(C#N)cnn12 [drawing 125]		100	
CC1CCN(c2c(-c3ccccc3Cl)c(Cl)nc3c(C#N)cnn23)CC1 [drawing 126]		95	
N#Cc1cnn2c(N3CCC(F)CC3)c(-c3c(F)cccc3Cl)c(Cl)nc12 [drawing 127]		94	
CC(C)CN(C)c1c(-c2c(F)cccc2Cl)c(Cl)nc2c(C#N)cnn12 [drawing 128]		99	
C=C(C)CN(CC)c1c(-c2c(F)cccc2Cl)c(Cl)nc2c(C#N)cnn12 [drawing 129]		100	
C[C@H](Nc1c(-c2c(F)cccc2Cl)c(Cl)nc2c(C#N)cnn12)C(F)(F)F [drawing 130]		100	
